Results taken from PMC6332596 (Journal of Hematology & Oncology, 2019).
Like-named read-outs stand apart in the source and are kept apart here.

Key:
[1] = tested on: human tumor xenograft models inoculated with human cancer cell lines derived from colon, lung, liver, or stomach cancers; parameters: method as in PMID 28004478; settings: cited from earlier work
[2] = tested on: VEGFR3; parameters: method as in PMID 28004478; settings: cited from earlier work
[3] = Grade 1, worst grade per patient in all cycles, N = 18
[4] = Grade 2, worst grade per patient in all cycles, N = 18
[5] = Grade 3, worst grade per patient in all cycles, N = 18
[6] = Grade 4, worst grade per patient in all cycles, N = 18
[7] = Grade 5, worst grade per patient in all cycles, N = 18

COc1ccc2c(Oc3ccc4c(C(=O)Nc5ccccc5N)cccc4c3)ccnc2c1 [chiauranib]
activity against human tumor xenograft models [1]: broad activity | patients with DLT (grade 3 hypertension) (65 mg/day cohort (n = 4), cycle 1): two | serious adverse events (SAE) reported (20-mg dose level, death from pulmonary infection, assessed unlikely related): one | Treatment-related adverse event: ALT increased [3]: 2 (11.1) n (%) | Treatment-related adverse event: AST increased [3]: 3 (16.7) n (%) | Treatment-related adverse event: Abdominal pain [3]: 2 (11.1) n (%) | Treatment-related adverse event: Amylase increased [3]: 3 (16.7) n (%) | Treatment-related adverse event: Blood urea increased [3]: 2 (11.1) n (%) | Treatment-related adverse event: Conjugated bilirubin increased [3]: 5 (27.8) n (%) | Treatment-related adverse event: Decreased appetite [3]: 0 n (%) | Treatment-related adverse event: Diarrhea [3]: 2 (11.1) n (%) | Treatment-related adverse event: Dysphonia [3]: 2 (11.1) n (%) | Treatment-related adverse event: Fatigue [3]: 7 (38.9) n (%) | Treatment-related adverse event: Hematuria [3]: 7 (38.9) n (%) | Treatment-related adverse event: Hyperbilirubinemia [3]: 2 (11.1) n (%) | Treatment-related adverse event: Hypertension [3]: 3 (16.7) n (%) | Treatment-related adverse event: Hypertriglyceridemia [3]: 5 (27.8) n (%) | Treatment-related adverse event: Hypothyroidism [3]: 7 (38.9) n (%) | Treatment-related adverse event: Leucopenia [3]: 2 (11.1) n (%) | Treatment-related adverse event: Mouth ulceration [3]: 1 (5.6) n (%) | Treatment-related adverse event: Nausea [3]: 4 (22.2) n (%) | Treatment-related adverse event: Neutropenia [3]: 2 (11.1) n (%) | Treatment-related adverse event: Palmar-plantar erythrodysesthesia syndrome [3]: 1 (5.6) n (%) | Treatment-related adverse event: Proteinuria [3]: 8 (44.4) n (%) | Treatment-related adverse event: Rash [3]: 1 (5.6) n (%) | Treatment-related adverse event: Thrombocytopenia [3]: 2 (11.1) n (%) | Treatment-related adverse event: Unconjugated bilirubin increased [3]: 2 (11.1) n (%) | Treatment-related adverse event: Vaginal hemorrhage [3]: 2 (11.1) n (%) | Treatment-related adverse event: ALT increased [4]: 0 n (%) | Treatment-related adverse event: AST increased [4]: 0 n (%) | Treatment-related adverse event: Abdominal pain [4]: 0 n (%) | Treatment-related adverse event: Amylase increased [4]: 1 (5.6) n (%) | Treatment-related adverse event: Blood urea increased [4]: 0 n (%) | Treatment-related adverse event: Conjugated bilirubin increased [4]: 0 n (%) | Treatment-related adverse event: Decreased appetite [4]: 2 (11.1) n (%) | Treatment-related adverse event: Diarrhea [4]: 1 (5.6) n (%) | Treatment-related adverse event: Dysphonia [4]: 0 n (%) | Treatment-related adverse event: Fatigue [4]: 4 (22.2) n (%) | Treatment-related adverse event: Hematuria [4]: 0 n (%) | Treatment-related adverse event: Hyperbilirubinemia [4]: 0 n (%) | Treatment-related adverse event: Hypertension [4]: 1 (5.6) n (%) | Treatment-related adverse event: Hypertriglyceridemia [4]: 1 (5.6) n (%) | Treatment-related adverse event: Hypothyroidism [4]: 0 n (%) | Treatment-related adverse event: Leucopenia [4]: 1 (5.6) n (%) | Treatment-related adverse event: Mouth ulceration [4]: 1 (5.6) n (%) | Treatment-related adverse event: Nausea [4]: 0 n (%) | Treatment-related adverse event: Neutropenia [4]: 0 n (%) | Treatment-related adverse event: Palmar-plantar erythrodysesthesia syndrome [4]: 1 (5.6) n (%) | Treatment-related adverse event: Proteinuria [4]: 0 n (%) | Treatment-related adverse event: Rash [4]: 1 (5.6) n (%) | Treatment-related adverse event: Thrombocytopenia [4]: 0 n (%) | Treatment-related adverse event: Unconjugated bilirubin increased [4]: 0 n (%) | Treatment-related adverse event: Vaginal hemorrhage [4]: 0 n (%) | Treatment-related adverse event: ALT increased [5]: 0 n (%) | Treatment-related adverse event: AST increased [5]: 0 n (%) | Treatment-related adverse event: Abdominal pain [5]: 0 n (%) | Treatment-related adverse event: Amylase increased [5]: 0 n (%) | Treatment-related adverse event: Blood urea increased [5]: 0 n (%) | Treatment-related adverse event: Conjugated bilirubin increased [5]: 0 n (%) | Treatment-related adverse event: Decreased appetite [5]: 0 n (%) | Treatment-related adverse event: Diarrhea [5]: 0 n (%) | Treatment-related adverse event: Dysphonia [5]: 0 n (%) | Treatment-related adverse event: Fatigue [5]: 0 n (%) | Treatment-related adverse event: Hematuria [5]: 0 n (%) | Treatment-related adverse event: Hyperbilirubinemia [5]: 0 n (%) | Treatment-related adverse event: Hypertension [5]: 2 (11.1) n (%) | Treatment-related adverse event: Hypertriglyceridemia [5]: 0 n (%) | Treatment-related adverse event: Hypothyroidism [5]: 0 n (%) | Treatment-related adverse event: Leucopenia [5]: 0 n (%) | Treatment-related adverse event: Mouth ulceration [5]: 0 n (%) | Treatment-related adverse event: Nausea [5]: 0 n (%) | Treatment-related adverse event: Neutropenia [5]: 2 (11.1) n (%) | Treatment-related adverse event: Palmar-plantar erythrodysesthesia syndrome [5]: 0 n (%) | Treatment-related adverse event: Proteinuria [5]: 0 n (%) | Treatment-related adverse event: Rash [5]: 0 n (%) | Treatment-related adverse event: Thrombocytopenia [5]: 0 n (%) | Treatment-related adverse event: Unconjugated bilirubin increased [5]: 0 n (%) | Treatment-related adverse event: Vaginal hemorrhage [5]: 0 n (%) | Treatment-related adverse event: ALT increased [6]: 0 n (%) | Treatment-related adverse event: AST increased [6]: 0 n (%) | Treatment-related adverse event: Abdominal pain [6]: 0 n (%) | Treatment-related adverse event: Amylase increased [6]: 0 n (%) | Treatment-related adverse event: Blood urea increased [6]: 0 n (%) | Treatment-related adverse event: Conjugated bilirubin increased [6]: 0 n (%) | Treatment-related adverse event: Decreased appetite [6]: 0 n (%) | Treatment-related adverse event: Diarrhea [6]: 0 n (%) | Treatment-related adverse event: Dysphonia [6]: 0 n (%) | Treatment-related adverse event: Fatigue [6]: 0 n (%) | Treatment-related adverse event: Hematuria [6]: 0 n (%) | Treatment-related adverse event: Hyperbilirubinemia [6]: 0 n (%) | Treatment-related adverse event: Hypertension [6]: 0 n (%) | Treatment-related adverse event: Hypertriglyceridemia [6]: 0 n (%) | Treatment-related adverse event: Hypothyroidism [6]: 0 n (%) | Treatment-related adverse event: Leucopenia [6]: 0 n (%) | Treatment-related adverse event: Mouth ulceration [6]: 0 n (%) | Treatment-related adverse event: Nausea [6]: 0 n (%) | Treatment-related adverse event: Neutropenia [6]: 0 n (%) | Treatment-related adverse event: Palmar-plantar erythrodysesthesia syndrome [6]: 0 n (%) | Treatment-related adverse event: Proteinuria [6]: 0 n (%) | Treatment-related adverse event: Rash [6]: 0 n (%) | Treatment-related adverse event: Thrombocytopenia [6]: 0 n (%) | Treatment-related adverse event: Unconjugated bilirubin increased [6]: 0 n (%) | Treatment-related adverse event: Vaginal hemorrhage [6]: 0 n (%) | Treatment-related adverse event: ALT increased [7]: 0 n (%) | Treatment-related adverse event: AST increased [7]: 0 n (%) | Treatment-related adverse event: Abdominal pain [7]: 0 n (%) | Treatment-related adverse event: Amylase increased [7]: 0 n (%) | Treatment-related adverse event: Blood urea increased [7]: 0 n (%) | Treatment-related adverse event: Conjugated bilirubin increased [7]: 0 n (%) | Treatment-related adverse event: Decreased appetite [7]: 0 n (%) | Treatment-related adverse event: Diarrhea [7]: 0 n (%) | Treatment-related adverse event: Dysphonia [7]: 0 n (%) | Treatment-related adverse event: Fatigue [7]: 0 n (%) | Treatment-related adverse event: Hematuria [7]: 0 n (%) | Treatment-related adverse event: Hyperbilirubinemia [7]: 0 n (%) | Treatment-related adverse event: Hypertension [7]: 0 n (%) | Treatment-related adverse event: Hypertriglyceridemia [7]: 0 n (%) | Treatment-related adverse event: Hypothyroidism [7]: 0 n (%) | Treatment-related adverse event: Leucopenia [7]: 0 n (%) | Treatment-related adverse event: Mouth ulceration [7]: 0 n (%) | Treatment-related adverse event: Nausea [7]: 0 n (%) | Treatment-related adverse event: Neutropenia [7]: 0 n (%) | Treatment-related adverse event: Palmar-plantar erythrodysesthesia syndrome [7]: 0 n (%) | Treatment-related adverse event: Proteinuria [7]: 0 n (%) | Treatment-related adverse event: Rash [7]: 0 n (%) | Treatment-related adverse event: Thrombocytopenia [7]: 0 n (%) | Treatment-related adverse event: Unconjugated bilirubin increased [7]: 0 n (%) | Treatment-related adverse event: Vaginal hemorrhage [7]: 0 n (%) | treatment-related AE exceeding grade 3 (N = 18): No treatment-related AE exceeded grade 3 was observed | treatment-related deaths (N = 18): No treatment-related deaths occurred | treatment-related fatigue, irrespective of grade (N = 18): 61.1% | treatment-related grade 3 hyperglycemia (N = 18): one | treatment-related grade 3 hypertension (N = 18): two | treatment-related grade 3 neutropenia (N = 18): two | treatment-related hematuria, irrespective of grade (N = 18): 38.9% | treatment-related hypertension, irrespective of grade (N = 18): 33.3% | treatment-related hypertriglyceridemia, irrespective of grade (N = 18): 33.3% | treatment-related hypothyroidism, irrespective of grade (N = 18): 38.9% | treatment-related proteinuria, irrespective of grade (N = 18): 44.4% | patients with at least one AE (N = 18, all dose levels): 18 patients | patients with at least one treatment-related AE (N = 18, all dose levels): 94.4% | Treatment-related adverse event: ALT increased (Total, all cycles, N = 18): 2 (11.1) n (%) | Treatment-related adverse event: AST increased (Total, all cycles, N = 18): 3 (16.7) n (%) | Treatment-related adverse event: Abdominal pain (Total, all cycles, N = 18): 2 (11.1) n (%) | Treatment-related adverse event: Amylase increased (Total, all cycles, N = 18): 4 (22.2) n (%) | Treatment-related adverse event: Blood urea increased (Total, all cycles, N = 18): 2 (11.1) n (%) | Treatment-related adverse event: Conjugated bilirubin increased (Total, all cycles, N = 18): 5 (27.8) n (%) | Treatment-related adverse event: Decreased appetite (Total, all cycles, N = 18): 2 (11.1) n (%) | Treatment-related adverse event: Diarrhea (Total, all cycles, N = 18): 3 (16.7) n (%) | Treatment-related adverse event: Dysphonia (Total, all cycles, N = 18): 2 (11.1) n (%) | Treatment-related adverse event: Fatigue (Total, all cycles, N = 18): 11 (61.1) n (%) | Treatment-related adverse event: Hematuria (Total, all cycles, N = 18): 7 (38.9) n (%) | Treatment-related adverse event: Hyperbilirubinemia (Total, all cycles, N = 18): 2 (11.1) n (%) | Treatment-related adverse event: Hypertension (Total, all cycles, N = 18): 6 (33.3) n (%) | Treatment-related adverse event: Hypertriglyceridemia (Total, all cycles, N = 18): 6 (33.3) n (%) | Treatment-related adverse event: Hypothyroidism (Total, all cycles, N = 18): 7 (38.9) n (%) | Treatment-related adverse event: Leucopenia (Total, all cycles, N = 18): 3 (16.7) n (%) | Treatment-related adverse event: Mouth ulceration (Total, all cycles, N = 18): 2 (11.1) n (%) | Treatment-related adverse event: Nausea (Total, all cycles, N = 18): 4 (22.2) n (%) | Treatment-related adverse event: Neutropenia (Total, all cycles, N = 18): 4 (22.2) n (%) | Treatment-related adverse event: Palmar-plantar erythrodysesthesia syndrome (Total, all cycles, N = 18): 2 (11.1) n (%) | Treatment-related adverse event: Proteinuria (Total, all cycles, N = 18): 8 (44.4) n (%) | Treatment-related adverse event: Rash (Total, all cycles, N = 18): 2 (11.1) n (%) | Treatment-related adverse event: Thrombocytopenia (Total, all cycles, N = 18): 2 (11.1) n (%) | Treatment-related adverse event: Unconjugated bilirubin increased (Total, all cycles, N = 18): 2 (11.1) n (%) | Treatment-related adverse event: Vaginal hemorrhage (Total, all cycles, N = 18): 2 (11.1) n (%) | MTD (administered orally once daily): 50 mg | recommended phase II dose (RP2D) (administered orally once daily, monotherapy): 50 mg | maximum tolerated dose (MTD) (patients, oral once daily, 28-day cycles): 50 mg/day | IC50 [2]: single-digit nanomolar range
